Here are results for 4 compounds from US7708989B2, “Methods of treating vascular diseases characterized by nitric oxide insufficiency” (NitroMed, Inc., priority 1999, dated 2010).

“Also recorded” adds a separate entry of the source.

The conditions of data set [1]: cited from earlier work.
Data set [2] concerns forearm microvessels. Briefly: Forearm microvascular vasodilator responses in salt-sensitive versus salt-resistant normotensive black patients. The class given is in vivo, human. On the procedure: To explore the relation between salt-sensitivity and endothelium-derived NO action in black patients prior to the development of hypertension, the blood pressure response to salt-loading and salt-deprivation using an established inpatient protocol (Weinberger et al, Hypertension, 8:II-127-II-134 (1986)) in a group of normotensive black patients was assessed. Briefly, blood pressure was continuously monitored non-invasively during a salt load (sodium 458 mEq over 24 hours) and during a period of salt depletion (furosemide treatment and sodium intake 10 mEq over 24 hours). Patients were considered to be salt-sensitive if mean blood pressure was at least 10 mm Hg higher during the salt loading period (Weinberger et al, Hypertension, 8:II-127-II-134 (1986)).

Data set [3] concerns forearm microvessels. As to the kind of experiment: Forearm blood flow responses by venous occlusion plethysmography in normotensive white and black patients. To be noted: 46 normotensive white and black patients matched for age and gender. It is filed as in vivo, human. On the procedure:
FIGS. 3A and 3B show forearm blood flow responses to nitroprusside (FIG. 3A) and methacholine (FIG. 3B) that were assessed by venous occlusion plethysmography in 25 white and 21 black patients without hypertension.
To investigate the issue of whether NO deficiency is a primary or secondary phenomenon in hypertensive black patients, 46 normotensive white and black patients who were matched for age and gender were compared. […] These findings are consistent with recently published results by other investigators (Lang et al, N EngI J Med, 333:155-160 (1995); Cardillo et al, Hypertension 31:1235-1239 (1998)).

Data set [4] deals with forearm microvessels. As to the kind of experiment: Forearm blood flow responses to intra-arterial infusions by venous occlusion plethysmography in white and black hypertensive patients. It is filed as in vivo, human. To be noted: intra-arterial infusion.
Another data set concerns conduit arteries. As to the kind of experiment: Conduit vessel function by brachial ultrasound technique (nitroglycerin-mediated dilation). To be noted: for NTG-response (%): mean ± SD. It is filed as in vivo, human. The source says: The effects of hypertension and race on conduit vessel function were examined using a well-established brachial ultrasound technique (Vita et al, Lanzer & Lipton, Eds., Diagnostics of Vascular Diseases: Principles and Technology. Berlin:Springer-Verlag, pp.249-259 (1996)) in 370 patients (178 black, 192 white). […] Further, systolic blood pressure was inversely correlated with flow-mediated dilation (r=−0.30, P<0.001) and nitroglycerin-mediated dilation (r=−0.33, P<0.001). Diastolic pressure correlated to a similar extent with vascular function. By multiple linear regression analysis, vessel size and systolic blood pressure were the only independent predictors of flow-mediated dilation in this sizable group of patients.

Take `O=[N+]([O-])O[C@H]1CO[C@H]2[C@@H]1OC[C@H]2O[N+](=O)[O-]` [isosorbide dinitrate, 1,4,3,6-dianhydro-D-glucitol-2,5-dinitrate]: the “solubility in organic solvents” value in data set [1] (organic solvents such as ethanol, ether and chloroform) was “freely soluble”. Besides, the solubility in water entry in data set [1] (water) is recorded as “sparingly soluble”.

As for `COc1ccc(CCN(C)CCCC(C#N)(c2ccc(OC)c(OC)c2)C(C)C)cc1OC` (stereo not shown) [verapamil], in the data set on forearm microvessels [2] (human, in vivo), the “vasodilator response, salt-sensitive compared to salt-resistant patients” value is reported as “equivalent”.

For `CC(=O)OC(C)C[N+](C)(C)C` (stereo not shown) [methacholine], the “vasodilator response, black compared to white normotensive patients” value with forearm microvessels [3] was “no racial difference; also recorded: not significantly different”. Also, the “vasodilator response, salt-sensitive compared to salt-resistant patients” value in the data set on forearm microvessels [2] (normotensive black patients, repeated measures ANOVA) was “trends for impaired vasodilator responses”. Also, in the data set with forearm microvessels [4] (36 white and black hypertensive patients), the “vasodilator (forearm blood flow) response, black compared to white hypertensive patients” value is reported as “impaired; also recorded: markedly worse”. In addition, the “dilator response, hypertensive patients compared to age-matched normotensive controls” value in the data set on forearm microvessels [4] (hypertensive versus normotensive controls) is listed as “significantly reduced”.

`O=[N+]([O-])OCC(CO[N+](=O)[O-])O[N+](=O)[O-]` [nitroglycerin]: the “nitroglycerin-mediated dilation according to race” value in the data set with conduit arteries (370 patients (178 black, 192 white)) is “no significant differences”. Besides, the “NTG-response (%)” value in the data set on conduit arteries (Black Patients, Hypertensive, p < 0.001 compared to race matched normotensives) is 16.4 ± 7.1 %; in the data set with conduit arteries (Black Patients, Normotensive) it was 20.6 ± 8.4%; with conduit arteries (White Patients, Hypertensive, p < 0.001 compared to race matched normotensives), 14.6 ± 6.2 %; in the data set with conduit arteries (White Patients, Normotensive), 18.1 ± 8.1%. In the data set on conduit arteries (hypertensive versus normotensive patients), the “effect of hypertension on nitroglycerin-mediated dilation” value is “highly significant reduction”.
